Reference: ChEMBL document CHEMBL1201862, “PubChem BioAssay data set” (2004)
Activity calls are given as the source filed them.

Legend:
Hexokinase-1 = target: T1, Hexokinase-1 (Homo sapiens, UniProt P19367); experiment: HK1 enzyme inhibition by HKDC1 hits, SAR follow-up, selectivity assay for HKDC1 inhibitor project, biochemical, set 2, resazurin fluorescence coupled readout (AID 588356); type: functional
T1 sequence (P19367 whole entry): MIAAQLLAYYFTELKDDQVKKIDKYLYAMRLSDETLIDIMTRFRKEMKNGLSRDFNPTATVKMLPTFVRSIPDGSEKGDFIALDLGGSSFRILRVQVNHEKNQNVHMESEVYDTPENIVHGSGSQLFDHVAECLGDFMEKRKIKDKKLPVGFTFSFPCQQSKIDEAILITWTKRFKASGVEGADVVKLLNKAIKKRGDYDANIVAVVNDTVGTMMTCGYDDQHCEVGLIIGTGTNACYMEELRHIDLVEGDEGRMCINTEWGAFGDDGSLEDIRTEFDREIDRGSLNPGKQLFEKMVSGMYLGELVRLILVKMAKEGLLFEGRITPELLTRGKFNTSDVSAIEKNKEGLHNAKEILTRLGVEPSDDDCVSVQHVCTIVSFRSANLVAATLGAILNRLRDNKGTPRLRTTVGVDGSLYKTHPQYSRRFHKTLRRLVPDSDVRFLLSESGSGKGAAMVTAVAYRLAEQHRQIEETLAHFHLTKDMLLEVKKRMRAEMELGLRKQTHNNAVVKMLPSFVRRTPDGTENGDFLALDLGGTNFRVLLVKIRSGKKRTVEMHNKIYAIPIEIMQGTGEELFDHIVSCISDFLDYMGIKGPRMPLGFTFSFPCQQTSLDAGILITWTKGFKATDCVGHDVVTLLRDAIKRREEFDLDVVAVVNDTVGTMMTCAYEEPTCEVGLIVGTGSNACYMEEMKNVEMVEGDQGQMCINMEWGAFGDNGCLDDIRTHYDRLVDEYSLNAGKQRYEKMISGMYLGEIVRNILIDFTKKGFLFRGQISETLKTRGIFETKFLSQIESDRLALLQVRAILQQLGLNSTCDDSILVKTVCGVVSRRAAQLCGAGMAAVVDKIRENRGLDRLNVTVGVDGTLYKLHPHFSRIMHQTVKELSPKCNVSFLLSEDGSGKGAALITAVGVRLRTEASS

Hexokinase HKDC1 = target: T2, Hexokinase HKDC1 (Homo sapiens, UniProt Q2TB90); experiment: HKDC1 hexokinase inhibitors, SAR follow-up, biochemical, set 2 (AID 588355); type: functional
T2 sequence (Q2TB90 whole entry): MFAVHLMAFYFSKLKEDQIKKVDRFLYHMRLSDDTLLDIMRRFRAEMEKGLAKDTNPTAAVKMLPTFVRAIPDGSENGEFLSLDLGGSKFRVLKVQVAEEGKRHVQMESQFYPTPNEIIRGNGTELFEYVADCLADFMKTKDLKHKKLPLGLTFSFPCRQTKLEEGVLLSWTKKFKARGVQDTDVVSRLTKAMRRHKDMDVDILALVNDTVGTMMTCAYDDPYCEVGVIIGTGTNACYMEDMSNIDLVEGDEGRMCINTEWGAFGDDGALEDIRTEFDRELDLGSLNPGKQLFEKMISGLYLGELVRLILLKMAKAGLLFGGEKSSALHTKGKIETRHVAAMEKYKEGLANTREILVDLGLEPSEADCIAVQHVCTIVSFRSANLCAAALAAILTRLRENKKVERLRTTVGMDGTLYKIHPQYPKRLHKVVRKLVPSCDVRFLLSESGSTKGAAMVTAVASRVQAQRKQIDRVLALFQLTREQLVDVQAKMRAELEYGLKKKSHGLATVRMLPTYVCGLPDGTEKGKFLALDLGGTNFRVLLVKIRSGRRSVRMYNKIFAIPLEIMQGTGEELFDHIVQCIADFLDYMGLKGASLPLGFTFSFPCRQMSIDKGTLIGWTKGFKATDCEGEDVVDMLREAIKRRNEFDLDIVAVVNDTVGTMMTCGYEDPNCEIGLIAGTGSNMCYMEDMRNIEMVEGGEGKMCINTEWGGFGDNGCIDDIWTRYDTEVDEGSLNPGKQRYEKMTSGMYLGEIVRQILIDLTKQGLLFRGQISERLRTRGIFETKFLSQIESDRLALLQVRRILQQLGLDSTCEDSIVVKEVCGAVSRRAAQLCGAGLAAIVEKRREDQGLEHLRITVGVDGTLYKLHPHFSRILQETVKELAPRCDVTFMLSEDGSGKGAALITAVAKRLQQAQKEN

[1] = target: T3, Dual specificity protein phosphatase 3 (Homo sapiens, UniProt P51452); experiment: SAR VHR1 absorbance Assay for In Vitro dose response studies. [Related pubchem assays (depositor defined):AID1654, AID1661, AID1878, AID1992, AID2004]
[2] = target: T3, Dual specificity protein phosphatase 3; experiment: SAR VHR1 Fluorescent Assay for In Vitro dose response studies. [Related pubchem assays (depositor defined):AID1654, AID1661, AID1878, AID1992, AID2004, AID2070, AID2085]; type: functional
[3] = target: T4, Tyrosine-protein phosphatase non-receptor type 7 (Homo sapiens, UniProt P35236); experiment: redox-dependent HePTP inhibition, mechanism study, biochemical, fluorescence (AID 2068); type: functional
T4 sequence (P35236 whole entry): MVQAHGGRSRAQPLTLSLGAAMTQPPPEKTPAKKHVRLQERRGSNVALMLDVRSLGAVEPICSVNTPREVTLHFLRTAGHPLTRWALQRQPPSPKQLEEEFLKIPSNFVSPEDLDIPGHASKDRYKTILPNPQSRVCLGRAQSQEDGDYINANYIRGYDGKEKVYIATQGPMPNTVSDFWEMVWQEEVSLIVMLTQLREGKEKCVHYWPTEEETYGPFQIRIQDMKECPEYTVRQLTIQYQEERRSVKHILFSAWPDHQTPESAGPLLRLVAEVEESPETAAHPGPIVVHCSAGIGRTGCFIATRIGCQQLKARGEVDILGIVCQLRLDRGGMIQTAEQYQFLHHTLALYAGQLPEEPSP

[4] = target: Dual specificity protein phosphatase 6 (Rattus norvegicus, UniProt Q64346); type: functional;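 note: confirmatory in vitro dose-response testing of MKP-3 inhibition; recombinant His-tagged MKP-3 made in E. coli BL21 with OMFP substrate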
Jurkat = experiment: antigen receptor-induced NF-kB inhibitors, dose response, Jurkat, luciferase reporter, luminescence, B- and T-cell (AID 489004); type: functional, cell-based; conditions: Homo sapiens;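 note: NF-kB luciferase reporter Jurkat cells stimulated with PMA plus ionomycin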
[5] = cytotoxicity in HEK-293T NF-kB-Luc cells, dose response, cytotoxicity control for B/T-cell NF-kB inhibitor project, cell-based, uHTS hits (AID 489019); type: functional;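 note: IC50 reflects cytotoxicity as loss of cell viability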
[6] = target: G-protein coupled receptor 55 (Homo sapiens, UniProt Q9Y2T6); experiment: GPR55 antagonists, SAR follow-up, counter-screen for GPR35 antagonist project, imaging, image-based (AID 2397); type: functional
[7] = insulin promoter down-regulators in MIN6 cells, imaging, high-content screening, mouse beta cells (AID 1628); type: functional
[8] = cytotoxicity in MIN6 insulinoma cells, dose response, cytotoxicity control, cell-based, mouse insulinoma (AID 2122); type: functional;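 note: confirmatory high-throughput counterscreen run to flag cytotoxic compounds; mouse MIN-6 beta cells carrying an insulin promoter eGFP reporter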
[9] = target: Induced myeloid leukemia cell differentiation protein Mcl-1 (Homo sapiens, UniProt Q07820); type: functional
Sequence of Induced myeloid leukemia cell differentiation protein Mcl-1 (Q07820 whole entry): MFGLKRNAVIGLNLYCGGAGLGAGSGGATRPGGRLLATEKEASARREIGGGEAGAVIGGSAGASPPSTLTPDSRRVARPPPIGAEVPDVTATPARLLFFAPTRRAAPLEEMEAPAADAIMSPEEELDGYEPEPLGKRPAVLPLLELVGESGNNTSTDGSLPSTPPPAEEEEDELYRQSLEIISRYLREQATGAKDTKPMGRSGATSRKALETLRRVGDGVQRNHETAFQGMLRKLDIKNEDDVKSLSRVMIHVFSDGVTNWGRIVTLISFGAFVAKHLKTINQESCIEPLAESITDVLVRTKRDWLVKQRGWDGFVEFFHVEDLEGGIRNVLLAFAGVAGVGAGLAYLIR

T3 sequence (P51452 whole entry): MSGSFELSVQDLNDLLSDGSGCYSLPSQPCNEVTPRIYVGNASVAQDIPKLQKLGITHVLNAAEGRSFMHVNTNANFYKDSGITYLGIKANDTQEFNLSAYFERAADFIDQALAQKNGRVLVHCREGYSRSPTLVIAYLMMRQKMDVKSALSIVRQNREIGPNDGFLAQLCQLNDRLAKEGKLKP
Sequence of G-protein coupled receptor 55 (Q9Y2T6 whole entry): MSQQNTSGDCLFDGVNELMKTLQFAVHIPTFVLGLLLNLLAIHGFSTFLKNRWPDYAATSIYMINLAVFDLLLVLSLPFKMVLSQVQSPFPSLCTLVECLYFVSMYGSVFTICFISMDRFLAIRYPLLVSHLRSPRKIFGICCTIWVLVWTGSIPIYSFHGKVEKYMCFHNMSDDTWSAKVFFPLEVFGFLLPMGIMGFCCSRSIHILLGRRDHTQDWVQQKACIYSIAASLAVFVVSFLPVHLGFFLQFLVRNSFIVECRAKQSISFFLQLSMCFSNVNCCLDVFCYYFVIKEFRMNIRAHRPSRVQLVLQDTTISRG
Sequence of Dual specificity protein phosphatase 6 (Q64346 whole entry): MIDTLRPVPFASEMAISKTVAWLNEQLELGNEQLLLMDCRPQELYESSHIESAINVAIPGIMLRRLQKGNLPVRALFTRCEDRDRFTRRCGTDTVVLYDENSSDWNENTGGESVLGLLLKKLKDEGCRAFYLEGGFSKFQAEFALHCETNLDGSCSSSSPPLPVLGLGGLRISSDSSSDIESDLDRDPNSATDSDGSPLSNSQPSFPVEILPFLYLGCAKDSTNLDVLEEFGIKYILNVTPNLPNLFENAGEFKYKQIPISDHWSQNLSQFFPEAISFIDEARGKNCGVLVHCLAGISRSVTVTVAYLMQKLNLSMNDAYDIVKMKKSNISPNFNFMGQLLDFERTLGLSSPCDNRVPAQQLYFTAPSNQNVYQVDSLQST

Cc1ccccc1N1C(=O)c2ccccc2C1Nc1ccc(Cl)cc1 (configuration not stated)
IC50 (Hexokinase-1): > 80 µM (inactive)
IC50 (Hexokinase HKDC1): > 80 µM (inactive)

CN(C)C(=O)c1cn(CCOc2ccccc2)c2ccccc12
IC50 [1]: > 100 µM (inactive)
IC50 [2]: > 100 µM (inactive)
IC50 [3]: > 100 µM (inactive)
IC50 [4]: > 100 µM (inactive)

Cc1cc(NNC(=O)Nc2cccc(Cl)c2)nc2c1c(C)nn2C
IC50 (Jurkat): 46.2 µM (inactive)
IC50 [5]: > 80 µM (inactive)

COc1ccc(Cn2c(SCC(=O)Nc3ccc(C)c(C)c3)nc3ccsc3c2=O)cc1
IC50 [6]: > 32 µM (inactive)

O=C(Nc1ccc(N2CCOCC2)cc1)Nc1ccc2nc(-c3ccco3)c(-c3ccco3)nc2c1
IC50 [7]: 1.91 µM (active)
IC50 [8]: 3.55 µM (active)
IC50 [9]: 0.894 µM (active)
